Measured values from patent publication US20190240282A1, “Nanocage” (IMPERIAL INNOVATIONS LIMITED, priority 2016, published 2019).

Columns and labels:
HT-29 cells [1] = assay: LC-MS of lysed cells after dosing with the nanocage-antibody complex; assay type: cell-based; details: delivered by the nanocage with anti-EGFR; cells washed prior to lysis
Experimental: HT-29 cells were grown in DMEM medium with 10% FBS overnight. Cells were then treated with the nanocage-antibody complex (100 μl) at 37° C. for different 48 h and 72 h. After incubation, the cells were washed 3× with cold PBS. Re-suspended cells were analysed by LC-MS (Agilent 6550), data were quantified using a 20 ppm window for Dox and PI based on a calibrated standard;
Purified protein and cell extract samples were analysed by LCMS on an Agilent 6550. LC separation was achieved using a 1290 Infinity system (Agilent, Santa Clara, Calif.) and a Vydac 214MS C4 column, 2.1×150 mm and […], (Grace, Columbia, Md.) at a temperature of 35° C. with a buffer flow rate of 0.2 ml/min. with a denaturing mobile phase: buffer A was 0.1% formic acid in water and buffer B was 0.1% formic acid in acetonitrile. Elution of components was achieved using a linear gradient from 3% to 40% buffer B over 18.5 min. On-line mass spectra were accumulated on a 6550 quadrupole time-of-flight instrument with a dual electrospray Jet Stream source (Agilent). Mass spectra were acquired of the m/z range of 100-1700 at a rate of 0.6 spectra per second. […]
Further evaluation of drug delivery was performed by mass spectrometry. Following the dosing procedure used above, cells were washed prior to lysis and drug presence measured by LC-MS (Agilent 6550). […]

HT29 cells = assay: Flow cytometry, antibody directed cell binding of GFP nanocage; assay type: cell-based
Experimental: (§1) Purified wt ZZ-GFP-hFTN (20 μg) was mixed with either anti-NK1.1 antibody (1 μg) or anti-EGFR antibody (1 μg) in 210 μl of PBS. For each assay, 50 μl of the nanocage-antibody was mixed with 1×10^6 cells of either HT29 or MNK1.1 in 100 μl. Cells were analysed an a BD Fortessa using the FITC channel (ex 488 nm; emm 530-30 nm) to observe GFP fluorescence. […] Nanocage antibody are shown with MNK1.1 cells (B) and HT29 cells (D);
(§2) Flow cytometry was performed on a BD Fortessa using the FITC channel to observe GFP (ex 488 nm; emm 530-30 nm; ToPro-3 was imaged in red channel (640 nm ex; 670/14 emission). Data was analysed using Flow-Jo software.
(§3) Ferritin fusions containing an N-terminal ZZ domain, in principle, should be able to bind to IgG isotype antibodies since the Z-domain is a synthetic derivative of an IgG binding domain from Staphylococcus aureus protein A. The inventors evaluated the specificity with which they can direct the targeting of the ferritin nanocage to specific cell types by direct antibody interactions. To establish a fluorescent basis for determining cell binding they used the GFP labelled wt ZZ-GFP-hFTN.

MNK1.1 cells = assay: as above; assay type: cell-based, mouse
Experimental: as §1, §2, §3

HT-29 cells [2] = assay: Phenotypic cell death assay using Vybrant cell staining and flow cytometry; assay type: cell-based; details: after 48 h, free drug alone, 5 μM
Experimental: HT-29 cells were trypsinised and cell viability was assessed using the Trypan blue exclusion assay—count cells treated with Trypan blue dye using a haemocytometer, and determine the volume of cell suspension that contains 5×10^5 live cells. Live cells (5×10^5) seeded into a 12-well plate with a final volume of 500 μL. This final 500 μL volume will consist of 5×10^5 cells+medium+drug-Au-ZZ-hFTN+anti-EGFR antibody (0.5-1 μg). The plate was incubated in a tissue culture incubator set at 37° C., 5% CO2, 95% humidity for 24 h or 48 h before the experiment was stopped. Uptake of drug-Au-ZZ-hFTN by cells was stopped by removing the 500 μL solution containing test or control compounds, trypsinising cells and pelleting cells in preparation for cytotoxicity assays, e.g. Vybrant cell apoptosis assay. […] Within 30 min after the incubation period, the stained cells were analysed by flow cytometry, using 488 nm excitation with green fluorescence emission for YOPRO R-1 (i.e., 530/30 bandpass) and red fluorescence emission for propidium iodide (i.e., 610/20 bandpass), gating on cells to exclude debris. […] The stained cell population will separate into three groups: live cells show a low level of green fluorescence, apoptotic cells show an incrementally higher level of green fluorescence, and dead cells show both red and green fluorescence. […]

Compound: CC[N+](C)(CC)CCC[n+]1c(-c2ccccc2)c2cc(N)ccc2c2ccc(N)cc21.[I-].[I-] [PI, propidium iodide]
- drug presence in lysed cells by LC-MS (HT-29 cells [1]): present in the lysed cells

Compound: wt ZZ-GFP-hFTN: wild-type human heavy chain ferritin with N-terminal ZZ antibody binding domain and GFP, forms nanocage
- binding of the nanocage to cells (GFP fluorescence) (HT29 cells; absence of antibody): no discernible background binding
- binding of the nanocage to cells (GFP fluorescence) (HT29 cells; presence of anti-EGFR antibody): complete shift in the fluorescence of the population
- binding of the nanocage to cells (GFP fluorescence) (MNK1.1 cells; absence of antibody): no discernible background binding
- binding of the nanocage to cells (GFP fluorescence) (MNK1.1 cells; presence of anti-NK1.1 antibody): complete shift in the fluorescence of the population

Compound: COc1cccc2c1C(=O)c1c(O)c3c(c(O)c1C2=O)C[C@@](O)(C(=O)CO)C[C@@H]3O[C@H]1C[C@H](N)[C@H](O)[C@H](C)O1 [Dox, doxorubicin]
- drug presence in lysed cells by LC-MS (HT-29 cells [1]): present in the lysed cells

Compound: CC(=O)O[C@H]1C(=O)[C@@]2(C)[C@H]([C@H](OC(=O)c3ccccc3)[C@]3(O)C[C@H](OC(=O)[C@H](O)[C@@H](NC(=O)c4ccccc4)c4ccccc4)C(C)=C1C3(C)C)[C@]1(OC(C)=O)CO[C@@H]1C[C@@H]2O [Pac, Paclitaxel]
- cell death (HT-29 cells [2]): ~9%
